Data as given in patent publication US10533018B2, “Antimicrobial prochelators to target drug-resistant bacteria and methods of making and using the same” (Duke University, priority 2015, dated 2020).
Like-named read-outs stand apart in the source and are kept apart here.

Assays:
[1] = test system: Methicillin-Resistant Staphylococcus aureus (MRSA); test: microbe, parasite or virus in culture; assay type: cell-based; conditions: for IC50: Staphylococcus aureus
Description: (§1) Bacterial culture reagents including LB broth (Lennox), agar-agar, ampicillin, and ceftriaxone were purchased from Sigma Aldrich Corp. The Escherichia coli (E. coli) K12 strain HB101 and pGLO E. coli transformation kit purchased from Bio-Rad Laboratories Inc. HB101 was transformed with the bla gene via the pGLO plasmid. The bla gene encodes for a TEM-1 β-lactamase that imparts penicillin resistance to the mutant E. coli K-12 strain (+Bla). Strains E. coli UTI89, [27] pCOM-GFP-transformed E. coli UTI89 (pCOM-GFP), [28] and Methicillin-Resistant Staphylococcus aureus (MRSA) clone USA300 [29] have been previously described. The Extended-Spectrum β-Lactamase (ESBL) E. coli, Klebsiella pneumonia (Klebs), and Pseudomonas aeruginosa (Pseudo) strains were clinical isolates acquired deidentified from Duke Hospital and tested for antibiotic susceptibility in the Clinical Microbiology Laboratory using standard clinical susceptibility methods.
(§2) Cultures were incubated on LB (Lennox, Sigma) agar at 37° C. in ambient atmospheric composition. Before beginning an experiment, a single bacterial colony grown on LB agar was resuspended in 2 mL LB broth and incubated overnight to form a turbid cell suspension. The overnight culture was diluted 1:100 in LB and used immediately as the working culture. To assess the antibacterial activity of compounds, the working bacterial culture was aliquoted in a clear, flat-bottomed, 96-well polystyrene plate (Costar) and the compound of interest was added in 2-fold serial dilution from 500 to 1 μM. Plates were covered with a breathable sealing film (Aeroseal, Genesee Scientific) and incubated at 37° C. in ambient atmospheric composition with shaking at 200 rpm. Optical density at 600 nm was recorded after 4 h and 20 h for each well using a standard OD600 protocol with LB serving as the blank. The resulting dose-response curves were fit to a nonlinear regression in GraphPad Prism Version 6 to calculate the IC50 of DB4-51 in each strain.
(§3) The ability of DB4-162 to inhibit bacterial growth was assessed by a traditional broth microdilution method that assesses the turbidity of liquid cultures in the presence of varying concentrations of the compound. As described above for DB4-51, the antibacterial properties of the prochelator DB4-162 were assessed in non-pathogenic lab-strain HB101K-12 E. coli and compared to the pGLO-transfected mutant HB101K-12 E. coli that express β-lactamase. Clinically relevant pathogenic bacteria were also screened, including UTI89 E. coli, pCOM transfected UTI89 E. coli (pCOM), extended spectrum β-lactamase (ESBL) E. coli, methicillin-resistant Staphylococcus aureus (MRSA), and Klebsiella pneumonia (Klebs). In addition to being naturally resistant to many β-lactam antibiotics, MRSA can produce a number of β-lactamases. […] It should be noted that all of the bacteria tested are gram-negative except for gram-positive MRSA.
(§4) The goal of this screen was to calculate the IC50 of the prochelator in a series of pathogenic bacteria and compare these values to the IC50 of known antibiotics in those same strains to determine the relative effectiveness of DB4-162 against the drug-resistant and drug-susceptible bacteria in comparison to current antibiotic treatment options. Bacterial growth was monitored in LB broth at 37° C. in the presence and absence of DB4-162 for 20 hours. A concentration gradient of DB4-162 from 500 to 0 μM was used to screen all 7 strains of bacteria and the dose-response curves were fit to a […] to calculate the IC50 of DB4-162 in each strain. These IC50 values are an approximation of how effectively DB4-162 inhibits the growth of each bacterial strain in vitro.
(§5) IC50 values for ampicillin were calculated via broth microdilution in LB broth only. Values are listed as the mean followed by the 95% confidence interval about the mean. Mean and confidence intervals were calculated from a variable slope, nonlinear regression fit to the dose-response OD600 data. […]

−Bla K-12 E. coli = test: microbe, parasite or virus in culture; assay type: cell-based, Escherichia coli; conditions: for IC50: Escherichia coli, −Bla K-12 E. coli, read-out: IC50
Description: as §1, §2, §3, §4, §5

+Bla K-12 E. coli = test: microbe, parasite or virus in culture; assay type: cell-based, Escherichia coli; conditions: for IC50: Escherichia coli, +Bla K-12 E. coli
Description: as §1, §2, §3, §4, §5

UTI89 E. coli = test: Broth microdilution growth inhibition (OD600); assay type: cell-based, Escherichia coli; conditions: for IC50: Escherichia coli, UTI89 E. coli
Description: as §1, §2, §3, §4, §5

[2] = test system: Klebsiella pneumonia (Klebs); test: Broth microdilution growth inhibition (OD600); assay type: cell-based; conditions: for IC50: Klebsiella pneumoniae
Description: as §1, §2, §3, §4, §5

[3] = test system: clinical isolates of Klebsiella pneumonia (Klebs); test: Broth microdilution in Klebs clinical isolates; assay type: cell-based; conditions: Klebsiella pneumoniae, LB broth, read-out: IC50
Description: as §1, §2

[4] = test system: resistant E. coli HB101 K-12 transformed to express β-lactamase; test: microbe, parasite or virus in culture; assay type: cell-based, Escherichia coli; conditions: Escherichia coli
Procedure: In order to determine the antibiotic activity of DB4-51, a debilitated strain of Escherichia coli (HB101 K-12) was transformed with the pGLO plasmid from Bio-Rad in order to express β-lactamase. This transformation was confirmed by growing on a selective medium containing 100 μg/ml ampicillin in Lennox LB with 1.5% agar. A broth microdilution assay was employed to determine the relative activity of DB4-51 against susceptible (HB 101 K-12, no β-lactamase) and resistant (HB 101 K-12 transformed to express β-lactamase) E. coli. […] The bacterial growth was monitored by recording each well's absorbance at 600 nm (OD600.) The OD600 values of E. coli suspensions incubated with various compounds were compared in order to assess their activities.
FIG. 7: OD600 of susceptible and resistant K-12 E. coli cultures against DB4-51 and known antibiotics as a function of concentration. Ampicillin has a penicillin core and cephalexin has a cephalosporin core. Cultures were grown in LB broth at 37° C. while shaking at 200 rpm for 18 hours and then diluted to an OD600 of 0.005 before adding the compounds. […]
(§6) Table 1: Calculated IC50 values for DB4-51, cephalexin, ampicillin, and pyrithione. These values were derived by fitting the data to a log dose-response curve and reporting the concentration corresponding to half the maximum OD600 value for each compound.

[5] = test system: susceptible E. coli HB101 K-12 (no β-lactamase); test: Broth microdilution (preliminary, Table 1), susceptible K-12; assay type: cell-based, Escherichia coli; conditions: Escherichia coli; Susceptable K-12 E. coli; LB; OD600; preliminary results
Procedure: In order to determine the antibiotic activity of DB4-51, a debilitated strain of Escherichia coli (HB101 K-12) was transformed with the pGLO plasmid from Bio-Rad in order to express β-lactamase. This transformation was confirmed by growing on a selective medium containing 100 μg/ml ampicillin in Lennox LB with 1.5% agar. A broth microdilution assay was employed to determine the relative activity of DB4-51 against susceptible (HB 101 K-12, no β-lactamase) and resistant (HB 101 K-12 transformed to express β-lactamase) E. coli. Using Lennox LB as the medium. serial dilutions of the test compounds were performed in a 96-well plate and then inoculated with E. coli before incubating for 16-20 hours at 35° C. The bacterial growth was monitored by recording each well's absorbance at 600 nm (OD600.) The OD600 values of E. coli suspensions incubated with various compounds were compared in order to assess their activities.
FIG. 7: OD600 of susceptible and resistant K-12 E. coli cultures against DB4-51 and known antibiotics as a function of concentration. Ampicillin has a penicillin core and cephalexin has a cephalosporin core. Cultures were grown in LB broth at 37° C. while shaking at 200 rpm for 18 hours and then diluted to an OD600 of 0.005 before adding the compounds. Plates were grown at 35° C. while shaking at 200 rpm and the OD600 was recorded after 18 hours.
as §6

E. coli = assay type: cell-based; conditions: high concentrations (>125 μM)
Description: Further evidence for the influence of bioavailable copper on the IC50 of DB4-51 was obtained by using a checkerboard assay. […] Serial dilutions of DB4-51 in LB were arrayed against dilutions of chelator (BCS and EDTA). The antagonism exists between our prochelator, DB4-51, and the strong, extracellular chelators BCS and EDTA. […] However, at lower concentrations, EDTA works antagonistically with DB4-51 by restoring bacterial growth. This trend further underscores the influence that copper and potentially other metals have on the growth inhibitory activity of DB4-51.

pCOM E. coli = test: microbe, parasite or virus in culture; assay type: cell-based, Escherichia coli; conditions: Escherichia coli, pCOM E. coli
Description: as §1, §2, §3, §4, §5

ESBL E. coli = test: microbe, parasite or virus in culture; assay type: cell-based, Escherichia coli; conditions: Escherichia coli, ESBL E. coli; LB broth
Description: as §1, §2, §3, §4, §5

[6] = Calcein fluorescence assay for Cu competition; assay type: physicochemical; conditions: 2 μM calcein + 2.4 μM CuCl2, pH 7.4 PBS; 20 μM (10 equivalents) compound alone; 1 h
Procedure: FIG. 11: To solutions of 2 μM calcein in pH 7.4 PBS was added 2.4 μM CuCl2 and the samples were fully equilibrated at room temperature for 2 hours. Next, 20 μM TAT, 20 μM DB4-162, 0.1 units/mL β-lactamase were added and the fluorescence at 500 nm was recorded after one hour.
A calcein fluorescence assay for metal competition was utilized in order to evaluate the relative metal-binding affinity of DB4-51 compared to PT. The fluorescence intensity of the probe calcein is quenched by more than 90% upon binding Cu^2+. […] However, when incubated with 10 equivalents of DB4-51 and 0.1 units/mL Type III β-lactamase from Enterobacter cloacae, there is an 85% return in calcein fluorescence, which correlates well with the 90% return observed for PT itself at the same concentration.
FIG. 4: Relative Cu binding assay with DB4-51 and PT against calcein. Solutions of 2 μM calcein and 2.4 μM CuCl2 in pH 7.4 PBS were equilibrated at room temperature for 2 hours prior to addition of 20 μM PT, 20 μM DB4-51, and/or 0.1 units/mL β-lactamase (Bla).
The calcein assay was utilized in order to assess the relative copper chelating ability of the prochelator and TAT. The fluorescence emission of calcein is quenched by more than 90% in the presence of 1.2 equivalents of CuCl2 (FIG. 11). […] The addition of 0.1 units/mL β-lactamase alone has no effect on the quenched fluorescence signal of the Cu-calcein solution. […] However, when incubated with 10 equivalents of DB4-162 and 0.1 units/mL β-lactamase there is a 90% return in calcein fluorescence. […] While it is unclear why 10 equivalents of TAT are insufficient to out-compete calcein for copper, it may be related to the propensity of TAT to form other species in aqueous media.

[Cl][Cu][Cl] [CuCl2]
reduction of growth ([1]; concentrations up to 500 μM): less than 20%
increase of growth (−Bla K-12 E. coli; K-12 E. coli (−Bla), 10 μM supplemental CuCl2): 5-20%
increase of growth (+Bla K-12 E. coli; K-12 E. coli (+Bla), 10 μM supplemental CuCl2): 5-20%
reduction of growth (UTI89 E. coli; UTI89, concentrations up to 500 μM): less than 20%
reduction of growth ([2]; concentrations up to 500 μM): less than 20%

CO/N=C(\C(=O)N[C@@H]1C(=O)N2C(C(=O)O)=C(CSc3nc(=O)c(=O)[nH]n3C)CS[C@H]12)c1csc(N)n1 [Ceftriaxone]
IC50 ([3]; Klebs Isolate 1): 0.4 µM
IC50 ([3]; Klebs Isolate 2): 0.7 µM
IC50 ([3]; Klebs Isolate 3): 2 µM
IC50 ([3]; Klebs Isolate 4): 1 µM
IC50 ([3]; Klebs Isolate 5): 0.1 µM
IC50 ([3]; Klebs Isolate 6): 0.3 µM
IC50 ([3]; Klebs Isolate 7): 0.3 µM
IC50 ([3]; Klebs Isolate 8): 0.1 µM
IC50 ([3]; Klebs Isolate 9): 73 µM
IC50 ([3]; Klebs Isolate 10): 0.03 µM
IC50 ([3]; Klebs Isolate 11): 0.01 µM
IC50 ([3]; Klebs Isolate 12): 0.1 µM
IC50 ([3]; Klebs Isolate 13): 1 µM

CC1=C(C(=O)O)N2C(=O)[C@@H](NC(=O)[C@H](N)c3ccccc3)[C@H]2SC1 [Cephalexin]
IC50 [4]: 33 µM
IC50 [5]: 26 µM

O=C(O)CN(CCN(CC(=O)O)CC(=O)O)CC(=O)O [EDTA, Ethylenediaminetetraacetic acid]
effect on bacterial growth (E. coli): some inhibition of bacterial growth

Cc1csc(=S)n1O [TAT, 3-hydroxy-4-methyl-2(3H)-thiazolethione]
IC50 ([1]; LB + 10 μM CuCl2): 10 µM
IC50 ([1]; LB + 500 μM BCS): 29 µM
IC50 ([1]; LB broth): 23 µM
IC50 (pCOM E. coli; LB + 10 μM CuCl2): 7 µM
IC50 (pCOM E. coli; LB + 500 μM BCS): 28 µM
IC50 (pCOM E. coli; LB broth): 6 µM
IC50 (ESBL E. coli): 41 µM
IC50 (−Bla K-12 E. coli; LB + 10 μM CuCl2): 36 µM
IC50 (−Bla K-12 E. coli; LB + 500 μM BCS): 70 µM
IC50 (−Bla K-12 E. coli; LB broth): 23 µM
IC50 (+Bla K-12 E. coli; LB + 10 μM CuCl2): 38 µM
IC50 (+Bla K-12 E. coli; LB + 500 μM BCS): 70 µM
IC50 (+Bla K-12 E. coli; LB broth): 36 µM
return in calcein fluorescence [6]: 30%
IC50 (UTI89 E. coli; LB + 10 μM CuCl2): 9 µM
IC50 (UTI89 E. coli; LB + 500 μM BCS): 38 µM
IC50 (UTI89 E. coli; LB broth): 6 µM
IC50 ([2]; LB + 10 μM CuCl2): 26 µM
IC50 ([2]; LB + 500 μM BCS): 51 µM
IC50 ([2]; LB broth): 14 µM
